Holding throughout (assay type): cell-based
Design in all cases: dose or concentration left out as unconfirmed
Settings in all cases: 96 hours

The test system of test [1] is breast tumor cell line MCF-7. Briefly: Trypan blue exclusion viability assay, MCF-7. The procedure:
(§1) MCF-7 is estrogen-responsive, while BT-20 is an estrogen-unresponsive cell line. NIH/3T3 and HFL are normal murine and human fibroblasts, respectively. MCF-7, BT-20, DLD-1 and H157 were grown in Dulbecco's modified Eagle's medium (DMEM) containing 10% fetal bovine serum supplemented with penicillin and streptomycin. DU145 was cultured in RPMI with 10% fetal bovine serum containing penicillin and streptomycin. […] All cell cultures were maintained at 37° C. in a humidified atmosphere of 5% CO2. Cells were treated with test compound at 2.5 mM concentration and cell viability was determined after 96 hours by the Trypan blue exclusion method.

Test [2] concerns prostate tumor cell line DU-145. Briefly: Trypan blue exclusion viability assay, DU145. The procedure: as §1
Test [3] concerns colorectal carcinoma cell line DLD-1. Nature of the test: Trypan blue exclusion viability assay, DLD-1. The procedure: as §1
In test [4] the test system is non-small cell lung carcinoma cell line H157. Nature of the test: Trypan blue exclusion viability assay, H157. As to the method: as §1
For test [5], the system named is breast tumor cell line BT-20. Nature of the test: Trypan blue exclusion viability assay, BT20. The procedure: as §1

On to `O=S(=O)(/C=C/c1ccc(F)cc1)Cc1ccc(C(F)(F)F)cc1` [Example 1, (E)-4-Fluorostyryl-4-trifluoromethylbenzylsulfone], for which the “Cell death, MCF-7” value in test [1] was “+++ (40-50% = +++)”. In addition, the “Cell death, DU145” value in test [2] was “+++ (40-50% = +++)”. For the same compound, the “Cell death, DLD-1” value in test [3] is “+++ (40-50% = +++)”. Also, the “Cell death, H157” value in test [4] is “++ (10-15% = ++)”. Further, the “Cell death, BT20” value in test [5] is “+++ (40-50% = +++)”.
As to `O=S(=O)(/C=C/c1ccc(Cl)cc1)Cc1ccc(C(F)(F)F)cc1` [Example 2, (E)-4-Chlorostyryl-4-trifluoromethylbenzylsulfone], in test [1], the “Cell death, MCF-7” value is on record as “++ (10-15% = ++)”. For the same compound, the “Cell death, DU145” value in test [2] is “++ (10-15% = ++)”. Also, the “Cell death, DLD-1” value in test [3] is “++ (10-15% = ++)”. In test [5], the “Cell death, BT20” value is given as “++ (10-15% = ++)”.
On to `O=S(=O)(/C=C/c1ccc(F)cc1)Cc1ccc(Cl)cc1Cl` [Example 4, (E)-4-Fluorostyryl-2,4-dichlorobenzylsulfone], for which, in test [1], the “Cell death, MCF-7” value was “++ (10-15% = ++)”. The “Cell death, DU145” value in test [2] is given as “++ (10-15% = ++)”. Besides, the “Cell death, H157” value in test [4] was “+ (5-10%: = +)”. In test [5], the “Cell death, BT20” value is given as “++ (10-15% = ++)”.
With `O=S(=O)(/C=C/c1ccc(Cl)cc1)Cc1ccc(Cl)cc1Cl` [Example 5, (E)-4-Chlorostyryl-2,4-dichlorobenzylsulfone], the “Cell death, MCF-7” value in test [1] is on record as “+++ (40-50% = +++)”. Also, the “Cell death, DU145” value in test [2] is “+ (5-10%: = +)”. The “Cell death, DLD-1” value in test [3] is “++ (10-15% = ++)”. In test [4], the “Cell death, H157” value is recorded as “++ (10-15% = ++)”.
Turning to `O=S(=O)(/C=C/c1ccc(F)cc1)Cc1ccc(Cl)c(Cl)c1` [Example 6, (E)-4-Fluorostyryl-3,4-dichlorobenzylsulfone], the “Cell death, MCF-7” value in test [1] is “++++ (50-60% = ++++)”. Also, the “Cell death, DU145” value in test [2] is recorded as “++++ (50-60% = ++++)”. For the same compound, the “Cell death, BT20” value in test [5] is listed as “++++ (50-60% = ++++)”.
In the case of `O=[N+]([O-])c1ccc(CS(=O)(=O)/C=C/c2ccc(F)cc2)cc1` [Example 9, (E)-4-Fluorostyryl-4-nitrobenzylsulfone], the “Cell death, MCF-7” value in test [1] is “++ (10-15% = ++)”. Also, the “Cell death, DU145” value in test [2] is recorded as “++ (10-15% = ++)”. For the same compound, the “Cell death, DLD-1” value in test [3] is “− (0% = −)”. In addition, the “Cell death, H157” value in test [4] is “++ (10-15% = ++)”. The “Cell death, BT20” value in test [5] is recorded as “++ (10-15% = ++)”.
Regarding `N#Cc1ccc(CS(=O)(=O)/C=C/c2ccc(Br)cc2)cc1` [Example 12, (E)-4-Bromostyryl-4-cyanobenzylsulfone], the “Cell death, MCF-7” value in test [1] was “− (0% = −)”. The “Cell death, DU145” value in test [2] is given as “− (0% = −)”. The “Cell death, DLD-1” value in test [3] is “− (0% = −)”. Besides, in test [4], the “Cell death, H157” value is “+ (5-10%: = +)”.
For the compound `O=S(=O)(/C=C/c1ccc(F)c(F)c1)Cc1ccc(Cl)cc1` [Example 13, (E)-3,4-Difluorostyryl-4-chlorobenzylsulfone], the “Cell death, MCF-7” value in test [1] was “− (0% = −)”. For the same compound, the “Cell death, DU145” value in test [2] is “− (0% = −)”. Moreover, the “Cell death, DLD-1” value in test [3] is reported as “− (0% = −)”. Moreover, the “Cell death, H157” value in test [4] was “− (0% = −)”.
Turning to `O=S(=O)(/C=C/c1ccc(F)c(Cl)c1)Cc1ccc(Cl)cc1` [Example 14, (E)-3-Chloro-4-fluorostyryl-4-chlorobenzylsulfone], in test [1], the “Cell death, MCF-7” value is listed as “− (0% = −)”. The “Cell death, DU145” value in test [2] was “− (0% = −)”. In addition, the “Cell death, DLD-1” value in test [3] is reported as “− (0% = −)”. Also, the “Cell death, H157” value in test [4] was “− (0% = −)”.
As to `O=S(=O)(/C=C/c1ccc(F)cc1Cl)Cc1ccc(Cl)cc1` [Example 15, (E)-2-Chloro-4-fluorostyryl-4-chlorobenzylsulfone], in test [1], the “Cell death, MCF-7” value is “+++++ (Above 80% = +++++)”. Moreover, in test [2], the “Cell death, DU145” value is “+++++ (Above 80% = +++++)”. The “Cell death, DLD-1” value in test [3] was “+++++ (Above 80% = +++++)”. In addition, in test [4], the “Cell death, H157” value is given as “+++++ (Above 80% = +++++)”.

These data come from patent US6762207B1, “(E)-styryl sulfone anticancer agents” (priority 1999, dated 2004).
